Experimental data as given in PMC2810227, “3-O-Methylfunicone, a Selective Inhibitor of Mammalian Y-Family DNA Polymerases from an Australian Sea Salt Fungal Strain” (Marine Drugs, 2009).

Tests used:
[1] = system: HCT116 (colon carcinoma cells); assay: Cancer cell growth, MTT assay, HCT116; assay type: cell-based, human
Description: (§1) Figure 5. (A) Human cancer cell growth inhibition dose-response curves of 3-O-methyl-funicone (1). Various concentrations (0 to 150 μM) of compound 1 were incubated with human colon carcinoma (HCT116) cells (circle) and human cervix carcinoma (HeLa) cells (square) for 24 h. Rate of cell growth was determined by MTT assay as described in the Experimental section. Data are shown as the means ± SEM of five independent experiments. (B) Clonogenic survival of UV-treated HeLa cells by compound 1. Various concentrations (0 to 100 μM) of compound 1 were incubated with 10 J/m^2 UV-treated (closed circle) or untreated (open circle) HeLa cells. After 7 days, the number of colonies in each treatment group was counted. Values are the means ± SEM of two independent experiments.
(§2) Human colon carcinoma cell line, HCT116, was a kind gift from Dr. Bert Vogelstein (Johns Hopkins University, Baltimore, […], USA). Human cervix carcinoma cell line, HeLa, was obtained from Health Science Research Resources Bank (Osaka, Japan). The cells were maintained in McCoy’s 5A medium supplemented with 10% FBS, sodium bicarbonate (2 g/L) and streptomycin (100 μg/mL). The cells were cultured at 37 °C in standard medium in a humidified atmosphere of 5% CO2-95% air. […] After incubation for 24 h, the survival rate was determined by MTT (3-(4,5-dimethylthiazol-2-yl)-2,5-diphenyl tetrazolium bromide) assay.

pol α from calf thymus = target: T1, pol α from calf thymus (Bos taurus, UniProt A0AAA9TD94); assay: DNA polymerase assay, pol α; assay type: biochemical; conditions: 100 μM
T1 construct: Pol α was purified from calf thymus; from tissue; host or cells: calf thymus
From the text: (§3) Pol α was purified from calf thymus by immuno-affinity column chromatography, as described by Tamai et al.. Recombinant rat pol β was purified from E. coli JMpβ5, as described by Date et al.. The human pol γ catalytic gene was cloned into pFastBac. Histidine-tagged enzyme was expressed using the BAC-TO-BAC HT Baculovirus Expression System according to the supplier’s manual (Life Technologies, MD, USA) and purified using ProBoundresin (Invitrogen Japan, Tokyo, Japan). Human pols δ and ɛ were purified by nuclear fractionation of human peripheral blood cancer cells (Molt-4) using the second subunit of pols δ and ɛ-conjugated affinity column chromatography, respectively. A truncated form of human pol η (residues 1–511) tagged with His6 at its C-terminal was expressed in E. coli cells and purified as described by Kusumoto et al.. A recombinant mouse pol ι tagged with His6 at its C-terminal was expressed and purified by Ni-NTA column chromatography as described elsewhere (Masutani et al., in preparation). […]
(§4) The compounds were dissolved in distilled dimethyl sulfoxide (DMSO) at various concentrations and sonicated for 30 sec. […] Activity without the inhibitor was considered 100%, and the remaining activity at each concentration of the inhibitor was determined relative to this value. […]

cauliflower pol α = assay: DNA polymerase assay, plant pol α; assay type: biochemical; conditions: 100 μM
From the text: as §3, §4

[2] = target: T2, Klenow fragment of E. coli pol I (Escherichia coli, UniProt P00582); assay: DNA polymerase assay, Klenow fragment; assay type: biochemical; conditions: 100 μM
T2 construct: the Klenow fragment of pol I from E. coli; purchased Worthington Biochemical Corp. (Freehold, NJ, USA)
From the text: as §3, §4

Taq pol = target: T3, Taq pol (Thermus aquaticus, UniProt P19821); assay: DNA polymerase assay, Taq pol; assay type: biochemical; conditions: 100 μM; 74 °C
T3 construct: purchased Takara Bio (Tokyo, Japan)
From the text: as §3, §4

[3] = system: HeLa (cervix carcinoma cells); assay: Cancer cell growth, MTT assay, HeLa; assay type: cell-based, human; conditions: 24 h
Description: as §1, §2

T4 pol = target: T4, T4 pol (Enterobacteria phage T4, UniProt P04415); assay: DNA polymerase assay, T4 pol; assay type: biochemical; conditions: 100 μM
T4 construct: purchased Takara Bio (Tokyo, Japan)
From the text: as §3, §4

T1 sequence (A0AAA9TD94 1-1441): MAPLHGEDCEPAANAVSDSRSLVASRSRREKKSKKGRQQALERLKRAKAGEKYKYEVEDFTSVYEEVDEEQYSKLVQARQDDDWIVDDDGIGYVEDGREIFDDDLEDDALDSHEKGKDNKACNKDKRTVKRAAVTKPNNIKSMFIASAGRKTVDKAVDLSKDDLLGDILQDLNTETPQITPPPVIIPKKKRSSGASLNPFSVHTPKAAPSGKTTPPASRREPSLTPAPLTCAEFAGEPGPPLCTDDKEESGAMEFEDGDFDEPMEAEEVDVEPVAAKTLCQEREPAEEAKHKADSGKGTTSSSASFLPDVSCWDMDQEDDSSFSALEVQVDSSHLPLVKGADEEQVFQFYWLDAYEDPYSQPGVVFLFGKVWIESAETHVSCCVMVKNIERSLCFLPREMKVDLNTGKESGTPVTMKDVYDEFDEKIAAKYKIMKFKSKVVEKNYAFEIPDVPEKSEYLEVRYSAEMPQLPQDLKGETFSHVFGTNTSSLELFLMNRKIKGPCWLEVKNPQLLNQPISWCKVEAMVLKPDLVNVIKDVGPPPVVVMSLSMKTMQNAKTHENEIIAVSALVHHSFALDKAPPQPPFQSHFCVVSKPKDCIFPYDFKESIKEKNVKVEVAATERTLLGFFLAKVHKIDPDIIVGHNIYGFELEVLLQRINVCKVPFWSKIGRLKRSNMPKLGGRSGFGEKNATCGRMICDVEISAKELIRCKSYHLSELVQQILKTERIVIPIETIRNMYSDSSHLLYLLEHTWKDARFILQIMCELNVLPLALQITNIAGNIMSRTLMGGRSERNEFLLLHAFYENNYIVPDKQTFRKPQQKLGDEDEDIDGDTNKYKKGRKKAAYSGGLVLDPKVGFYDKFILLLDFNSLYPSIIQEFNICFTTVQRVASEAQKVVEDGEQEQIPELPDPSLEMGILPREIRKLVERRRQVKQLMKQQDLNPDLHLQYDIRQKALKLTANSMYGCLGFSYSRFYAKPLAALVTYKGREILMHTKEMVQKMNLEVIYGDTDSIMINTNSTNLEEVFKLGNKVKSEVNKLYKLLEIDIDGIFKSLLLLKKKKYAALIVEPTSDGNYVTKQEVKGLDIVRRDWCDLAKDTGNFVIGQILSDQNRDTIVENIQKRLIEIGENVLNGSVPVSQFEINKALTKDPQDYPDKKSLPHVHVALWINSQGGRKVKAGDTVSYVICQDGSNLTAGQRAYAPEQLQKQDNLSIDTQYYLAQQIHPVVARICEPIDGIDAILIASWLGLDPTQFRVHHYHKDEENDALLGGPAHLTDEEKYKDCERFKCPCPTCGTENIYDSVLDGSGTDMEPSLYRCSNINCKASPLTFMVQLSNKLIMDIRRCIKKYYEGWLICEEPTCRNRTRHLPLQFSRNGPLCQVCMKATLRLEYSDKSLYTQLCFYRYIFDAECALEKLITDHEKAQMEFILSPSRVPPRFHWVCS
T2 sequence (P00582 324-928): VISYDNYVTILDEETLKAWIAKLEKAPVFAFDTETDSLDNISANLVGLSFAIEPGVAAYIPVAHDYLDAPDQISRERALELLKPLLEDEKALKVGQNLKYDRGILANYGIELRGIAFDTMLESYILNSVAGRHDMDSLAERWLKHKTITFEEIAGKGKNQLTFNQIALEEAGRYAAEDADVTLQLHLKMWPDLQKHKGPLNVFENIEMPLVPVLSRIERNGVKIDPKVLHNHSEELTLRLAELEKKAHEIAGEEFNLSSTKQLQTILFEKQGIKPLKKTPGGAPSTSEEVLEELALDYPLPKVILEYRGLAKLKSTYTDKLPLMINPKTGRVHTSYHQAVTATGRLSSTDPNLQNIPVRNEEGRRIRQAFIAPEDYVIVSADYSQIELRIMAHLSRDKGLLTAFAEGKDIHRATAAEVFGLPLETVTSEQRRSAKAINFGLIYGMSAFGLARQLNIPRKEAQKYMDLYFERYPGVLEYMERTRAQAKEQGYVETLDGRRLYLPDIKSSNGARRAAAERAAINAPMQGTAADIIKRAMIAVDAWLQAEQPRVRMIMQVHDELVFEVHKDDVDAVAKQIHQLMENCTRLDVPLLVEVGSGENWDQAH
T3 sequence (P19821 whole entry): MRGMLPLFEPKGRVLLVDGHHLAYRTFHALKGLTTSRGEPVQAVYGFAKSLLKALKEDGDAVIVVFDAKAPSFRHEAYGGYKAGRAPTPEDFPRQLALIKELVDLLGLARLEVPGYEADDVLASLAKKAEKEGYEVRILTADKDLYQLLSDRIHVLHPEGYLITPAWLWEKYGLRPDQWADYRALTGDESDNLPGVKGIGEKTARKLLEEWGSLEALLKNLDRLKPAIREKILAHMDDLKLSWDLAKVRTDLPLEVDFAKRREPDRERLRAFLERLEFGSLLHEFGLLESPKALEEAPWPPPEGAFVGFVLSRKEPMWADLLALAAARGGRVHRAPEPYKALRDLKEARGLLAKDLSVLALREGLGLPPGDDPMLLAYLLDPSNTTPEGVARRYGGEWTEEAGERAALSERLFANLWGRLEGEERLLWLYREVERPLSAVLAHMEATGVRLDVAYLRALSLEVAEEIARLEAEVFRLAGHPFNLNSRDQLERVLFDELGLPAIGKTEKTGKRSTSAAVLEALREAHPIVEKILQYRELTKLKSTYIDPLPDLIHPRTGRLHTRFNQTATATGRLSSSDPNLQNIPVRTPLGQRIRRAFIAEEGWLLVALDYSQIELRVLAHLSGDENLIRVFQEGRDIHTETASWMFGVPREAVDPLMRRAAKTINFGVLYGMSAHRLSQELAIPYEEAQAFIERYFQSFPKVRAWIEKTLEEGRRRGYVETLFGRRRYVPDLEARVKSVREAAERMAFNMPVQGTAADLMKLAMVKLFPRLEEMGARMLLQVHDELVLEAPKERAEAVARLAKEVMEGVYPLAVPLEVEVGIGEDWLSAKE

C/C=C/c1occ(C(=O)c2c(OC)cc(OC)cc2C(=O)OC)c(=O)c1OC [compound 1, 3-O-methylfunicone]
LD50, cell growth ([1]; HCT116, 24 h, MTT assay): 63.8 µM
cell growth inhibition dose relative to the enzyme inhibitory concentration ([1]; LD50 (HCT116 and HeLa) versus IC50 for Y-family pols): 1.3 to 5.1 fold
effect on pol α activity (pol α from calf thymus): hardly influenced
effect on cauliflower pol α activity (cauliflower pol α): no effect
effect on Klenow fragment of E. coli pol I activity [2]: no effect
effect on Taq pol activity (Taq pol): no effect
LD50, cell growth [3]: 63.3 µM
effect on T4 pol activity (T4 pol): no effect
